# Test results: article PMC5198511 (Molecular Pharmacology, 2017)
# Tests used:
# LogD7.4 measurement = type: physicochemical; conditions: 1-octanol/phosphate buffer, pH 7.4
# [1] = Immobilized artificial membrane chromatography; type: physicochemical; conditions: IAM chromatography, pH 7.4
smiles,measurement,setting,value
CCNC(=O)[C@H]1O[C@@H](n2cnc3c(N)nc(NCCc4ccc(CCC(=O)O)cc4)nc32)[C@H](O)[C@@H]1O [Compound 3ac],logD,LogD7.4 measurement,< -0.8
same,log KIAM,[1],−0.09
